From US20240269139A1, “COMPOUNDS FOR TARGETED PROTEIN DEGRADATION OF KINASES” (DANA-FARBER CANCER INSTITUTE, INC., priority 2020, published 2024)
Read-outs that look alike come from different tables or passages of the source.

Columns and labels:
Format in all cases: cell-based
[1] = molecular target: protein kinases (human kinome) (Homo sapiens, UniProt P11802)
From the text: (§1) Although development of targeted protein degraders requires a POI binder, among already-liganded proteins such as kinases, it was hypothesized that different targets would have a different propensity for current approaches to degrader-mediated destruction, which was termed ‘degradability’. […] It was rationalized that the probability of identifying the same kinase as a false positive in multiple treatments is low, therefore this analysis served to also assess the robustness of our data and subsequent interpretations. […] Overall, 62 protein kinases were degraded in more than 10 independent treatments, and remarkably, 9 of these (CDK4, AURKA, FER, WEE1, BLK. LIMK2, CDK6, GAK, LIMK1) were each degraded in at least 40 of the 154 independent treatments, emphasizing their predisposition to induced degradation (FIG. 1G; Appendix I).
(§2) Next, the frequency of degradation assessment was corrected for over-representation of molecules in the full dataset by omitting replicate profiling of compounds under different experimental conditions, to remove any bias. […] Unsurprisingly, the top degradable kinases mirror those from the previous analysis (CDK4, AURKA, FER, WEE1, BLK), confirming that in sufficiently large datasets, even with over-representation of certain molecules, frequency of degradation is a good measure of general tractability.

[2] = molecular target: protein kinases (human kinome) (Homo sapiens, UniProt P30291); details: for logFC of WEE1: WEE1 P30291-1
From the text: as §1, §2

[3] = molecular target: protein kinases (human kinome) (Homo sapiens, UniProt Q00534); details: for logFC CDK6: CDK6 (Q00534), direction down; for logFC of CDK6 (Q00534): down
From the text: as §1, §2

[4] = molecular target: protein kinases (human kinome) (Homo sapiens, UniProt Q15118); details: PDK1 Q15118; experiment wp084
From the text: as §1, §2

[5] = test system: protein kinases (human kinome); details: experiment wp114
From the text: as §1, §2

[6] = molecular target: protein kinases (human kinome) (Homo sapiens, UniProt Q8TDR2); details: experiment wp114
From the text: as §1, §2

[7] = molecular target: protein kinases (human kinome) (Homo sapiens, UniProt P16591)
From the text: as §1, §2

[8] = molecular target: protein kinases (human kinome) (Homo sapiens, UniProt Q05397); details: experiment wp011
From the text: as §1, §2

[9] = molecular target: T1, protein kinases (human kinome) (Homo sapiens, UniProt O14965); details: experiment wp011
T1 sequence (O14965 1-403): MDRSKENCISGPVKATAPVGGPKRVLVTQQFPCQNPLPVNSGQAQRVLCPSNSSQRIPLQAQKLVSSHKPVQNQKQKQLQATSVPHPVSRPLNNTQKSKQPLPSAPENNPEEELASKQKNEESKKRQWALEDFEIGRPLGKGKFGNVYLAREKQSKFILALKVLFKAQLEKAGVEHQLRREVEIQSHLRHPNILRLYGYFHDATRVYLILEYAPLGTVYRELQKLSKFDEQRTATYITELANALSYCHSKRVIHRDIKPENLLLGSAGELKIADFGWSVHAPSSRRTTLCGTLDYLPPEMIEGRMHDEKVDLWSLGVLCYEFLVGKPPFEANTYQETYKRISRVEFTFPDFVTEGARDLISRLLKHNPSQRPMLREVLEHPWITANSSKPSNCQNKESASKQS
From the text: as §1, §2

Chain of protein kinases (human kinome) (Homo sapiens, UniProt P11802) (P11802 whole entry): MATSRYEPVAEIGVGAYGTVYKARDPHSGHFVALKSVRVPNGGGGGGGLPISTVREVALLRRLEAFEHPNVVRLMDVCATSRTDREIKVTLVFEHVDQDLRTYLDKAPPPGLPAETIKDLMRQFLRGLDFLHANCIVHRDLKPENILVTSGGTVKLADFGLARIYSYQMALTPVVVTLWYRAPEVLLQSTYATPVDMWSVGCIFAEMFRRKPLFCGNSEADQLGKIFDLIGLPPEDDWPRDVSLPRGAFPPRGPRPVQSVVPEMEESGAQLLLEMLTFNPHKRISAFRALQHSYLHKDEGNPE
Chain of protein kinases (human kinome) (Homo sapiens, UniProt Q00534) (Q00534 whole entry): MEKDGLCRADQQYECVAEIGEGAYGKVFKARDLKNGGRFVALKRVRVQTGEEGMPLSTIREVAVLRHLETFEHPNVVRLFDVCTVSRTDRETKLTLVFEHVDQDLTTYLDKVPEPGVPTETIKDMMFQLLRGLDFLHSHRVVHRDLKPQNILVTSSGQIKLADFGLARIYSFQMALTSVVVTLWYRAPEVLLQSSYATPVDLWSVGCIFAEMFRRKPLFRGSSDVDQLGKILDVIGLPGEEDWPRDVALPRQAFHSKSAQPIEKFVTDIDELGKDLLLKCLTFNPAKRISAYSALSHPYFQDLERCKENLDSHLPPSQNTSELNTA
Chain of protein kinases (human kinome) (Homo sapiens, UniProt P30291) (P30291 whole entry): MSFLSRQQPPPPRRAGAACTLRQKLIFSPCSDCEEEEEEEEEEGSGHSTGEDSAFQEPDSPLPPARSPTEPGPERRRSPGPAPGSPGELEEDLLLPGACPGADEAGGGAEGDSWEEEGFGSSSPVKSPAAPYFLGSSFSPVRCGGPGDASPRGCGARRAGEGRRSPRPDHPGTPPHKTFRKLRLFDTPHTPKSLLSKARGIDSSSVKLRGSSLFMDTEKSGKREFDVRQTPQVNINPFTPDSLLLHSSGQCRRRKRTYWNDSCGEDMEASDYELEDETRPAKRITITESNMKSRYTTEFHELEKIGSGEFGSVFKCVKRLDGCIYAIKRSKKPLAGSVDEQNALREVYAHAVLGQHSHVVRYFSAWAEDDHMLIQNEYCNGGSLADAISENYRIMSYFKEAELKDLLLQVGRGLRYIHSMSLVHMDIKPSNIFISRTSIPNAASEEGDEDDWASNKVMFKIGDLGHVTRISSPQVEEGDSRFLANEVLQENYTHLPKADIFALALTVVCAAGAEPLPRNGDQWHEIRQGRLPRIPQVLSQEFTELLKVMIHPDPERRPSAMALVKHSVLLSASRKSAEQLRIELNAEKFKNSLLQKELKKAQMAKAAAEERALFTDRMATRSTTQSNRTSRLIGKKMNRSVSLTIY
Chain of protein kinases (human kinome) (Homo sapiens, UniProt Q8TDR2) (Q8TDR2 whole entry): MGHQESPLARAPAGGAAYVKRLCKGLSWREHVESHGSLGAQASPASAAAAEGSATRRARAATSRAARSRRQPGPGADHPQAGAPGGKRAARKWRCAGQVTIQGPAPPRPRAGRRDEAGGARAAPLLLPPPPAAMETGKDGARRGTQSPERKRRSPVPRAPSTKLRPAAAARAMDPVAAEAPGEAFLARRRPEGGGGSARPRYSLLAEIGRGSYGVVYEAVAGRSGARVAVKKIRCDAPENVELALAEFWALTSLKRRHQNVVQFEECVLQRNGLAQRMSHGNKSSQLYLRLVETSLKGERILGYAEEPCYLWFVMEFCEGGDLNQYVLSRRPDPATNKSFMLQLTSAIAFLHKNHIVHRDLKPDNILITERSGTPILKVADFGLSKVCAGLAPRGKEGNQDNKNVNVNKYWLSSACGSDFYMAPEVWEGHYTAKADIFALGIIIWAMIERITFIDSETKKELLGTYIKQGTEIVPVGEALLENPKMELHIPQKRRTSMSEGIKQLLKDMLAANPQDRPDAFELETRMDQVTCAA
Chain of protein kinases (human kinome) (Homo sapiens, UniProt P16591) (P16591 whole entry): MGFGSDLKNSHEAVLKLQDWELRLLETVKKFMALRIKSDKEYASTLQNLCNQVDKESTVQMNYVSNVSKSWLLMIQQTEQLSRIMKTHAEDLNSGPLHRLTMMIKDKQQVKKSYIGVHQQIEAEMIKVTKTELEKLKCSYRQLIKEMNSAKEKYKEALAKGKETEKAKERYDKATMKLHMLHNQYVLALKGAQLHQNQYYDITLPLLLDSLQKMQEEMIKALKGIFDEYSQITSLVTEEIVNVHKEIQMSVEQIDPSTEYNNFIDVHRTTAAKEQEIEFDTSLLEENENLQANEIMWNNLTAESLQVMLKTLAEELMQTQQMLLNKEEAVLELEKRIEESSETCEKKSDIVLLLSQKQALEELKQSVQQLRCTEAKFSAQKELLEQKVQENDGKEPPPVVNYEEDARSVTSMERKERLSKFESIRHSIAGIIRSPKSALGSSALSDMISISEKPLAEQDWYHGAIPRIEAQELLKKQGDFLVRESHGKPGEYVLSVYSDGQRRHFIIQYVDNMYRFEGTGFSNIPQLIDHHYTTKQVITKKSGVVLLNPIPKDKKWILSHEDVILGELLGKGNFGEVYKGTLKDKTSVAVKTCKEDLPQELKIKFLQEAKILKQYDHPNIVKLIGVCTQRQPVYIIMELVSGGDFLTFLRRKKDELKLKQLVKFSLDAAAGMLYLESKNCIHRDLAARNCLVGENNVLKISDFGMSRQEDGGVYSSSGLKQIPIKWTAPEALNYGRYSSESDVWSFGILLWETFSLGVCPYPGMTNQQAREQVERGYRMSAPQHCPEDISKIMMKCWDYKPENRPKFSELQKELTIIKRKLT
Chain of protein kinases (human kinome) (Homo sapiens, UniProt Q15118) (Q15118 29-436): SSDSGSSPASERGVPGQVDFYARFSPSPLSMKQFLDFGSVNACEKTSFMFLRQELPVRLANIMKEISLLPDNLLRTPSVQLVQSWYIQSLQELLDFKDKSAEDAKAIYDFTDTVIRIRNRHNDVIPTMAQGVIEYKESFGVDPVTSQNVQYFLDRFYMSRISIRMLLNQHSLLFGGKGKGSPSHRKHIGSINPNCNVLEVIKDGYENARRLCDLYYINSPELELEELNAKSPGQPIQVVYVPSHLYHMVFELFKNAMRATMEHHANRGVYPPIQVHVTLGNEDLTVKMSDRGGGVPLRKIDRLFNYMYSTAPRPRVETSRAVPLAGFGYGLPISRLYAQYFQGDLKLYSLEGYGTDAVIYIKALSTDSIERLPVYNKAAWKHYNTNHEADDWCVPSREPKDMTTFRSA
Chain of protein kinases (human kinome) (Homo sapiens, UniProt Q05397) (Q05397 whole entry): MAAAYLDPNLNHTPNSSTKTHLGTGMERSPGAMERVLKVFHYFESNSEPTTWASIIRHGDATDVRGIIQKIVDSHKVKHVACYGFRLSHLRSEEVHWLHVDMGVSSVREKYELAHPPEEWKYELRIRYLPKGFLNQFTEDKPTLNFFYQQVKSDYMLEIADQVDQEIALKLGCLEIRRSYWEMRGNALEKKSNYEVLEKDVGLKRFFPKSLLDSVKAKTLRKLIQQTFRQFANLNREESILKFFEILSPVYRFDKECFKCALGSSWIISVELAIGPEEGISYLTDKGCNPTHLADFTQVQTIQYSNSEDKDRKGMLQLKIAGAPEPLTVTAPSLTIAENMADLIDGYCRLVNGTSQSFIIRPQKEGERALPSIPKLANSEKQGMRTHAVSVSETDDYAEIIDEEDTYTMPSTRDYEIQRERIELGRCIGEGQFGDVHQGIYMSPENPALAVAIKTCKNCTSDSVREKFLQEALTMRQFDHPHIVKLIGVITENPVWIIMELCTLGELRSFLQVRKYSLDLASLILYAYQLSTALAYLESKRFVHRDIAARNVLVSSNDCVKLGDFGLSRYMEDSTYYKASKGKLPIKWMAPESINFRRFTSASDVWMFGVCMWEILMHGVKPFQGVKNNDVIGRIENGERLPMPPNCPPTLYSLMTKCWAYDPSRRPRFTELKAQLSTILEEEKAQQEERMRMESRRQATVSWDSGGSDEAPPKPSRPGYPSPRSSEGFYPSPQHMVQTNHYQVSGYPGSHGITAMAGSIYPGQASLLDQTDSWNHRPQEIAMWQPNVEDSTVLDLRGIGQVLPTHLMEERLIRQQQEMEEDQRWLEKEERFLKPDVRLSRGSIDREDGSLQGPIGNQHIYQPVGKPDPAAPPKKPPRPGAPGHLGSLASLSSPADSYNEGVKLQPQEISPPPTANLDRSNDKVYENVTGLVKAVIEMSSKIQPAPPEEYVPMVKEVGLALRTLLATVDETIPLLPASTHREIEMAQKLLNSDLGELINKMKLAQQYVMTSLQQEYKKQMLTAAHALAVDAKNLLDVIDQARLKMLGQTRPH

CC(=O)c1c(C)c2cnc(Nc3ccc(N4CCN(CCCCNC(=O)COc5cccc6c5C(=O)N(C5CCC(=O)NC5=O)C6=O)CC4)cn3)nc2n(C2CCCC2)c1=O (stereo not drawn) [BSJ.03.204]
logFC CDK4 (P11802) ([1]; experiment wp084): −2.162 | logFC CDK4 (P11802) ([1]; experiment wp137): −2.118 | logFC of WEE1 ([2]; experiment wp084): −0.5774 | logFC of WEE1 ([2]; experiment wp137): −0.6759 | logFC WEE1 (P30291-1) ([2]; experiment wp084): −0.5774 | logFC WEE1 (P30291-1) ([2]; experiment wp137): −0.6759 | logFC CDK6 ([3]; experiment wp084): −3.574 | logFC CDK6 ([3]; experiment wp137): −2.866 | logFC of CDK6 (Q00534) ([3]; Experiment wp084): −3.574 | logFC of CDK6 (Q00534) ([3]; Experiment wp137): −2.866 | logFC [4]: −0.3767 | logFC PDK1 [4]: −0.3767

Nc1ncc(-c2ccc(S(=O)(=O)N(CCCNC(=O)CCOCCOCCOCCOCCOCCNc3cccc4c3C(=O)N(C3CCC(=O)NC3=O)C4=O)C3CC3)cc2)cc1-c1ccc2c(c1)CCNC2=O (stereo not drawn) [WH.10414.099]
logFC CSNK1D ([5]; Accession P48730-2, direction down): −0.6187 | logFC CSNK1D ([5]; CSNK1D P48730-2): −0.6187 | logFC STK35 ([6]; Accession Q8TDR2, direction down): −0.8902 | logFC STK35 ([6]; STK35 (Q8TDR2)): −0.8902

COc1cc(N2CCN(CCOCCOCCNC(=O)CNc3cccc4c3C(=O)N(C3CCC(=O)NC3=O)C4=O)CC2)ccc1Nc1ncc(Cl)c(Nc2ccccc2S(=O)(=O)C(C)C)n1 (stereo not drawn) [TL13.12]
logFC of FER (P16591-1) ([7]; Experiment wp011, down): −0.8459 | logFC of FER ([7]; FER P16591-1, experiment wp011): −0.8459 | logFC PTK2 ([8]; Accession Q05397, direction down): −1.365 | logFC PTK2 ([8]; PTK2 Q05397): −1.365 | logFC AURKA (O14965) [9]: −0.5988
